Measurements from publication PMC4948780, “PARP Inhibitors in Clinical Use Induce Genomic Instability in Normal Human Cells” (PLoS ONE, 2016).

What was measured:
[1] = system: Brca2^lex1/lex2 mES cells; test: Clonogenic survival assay, mES cells; type: cell-based, mouse
Description: (§1) Human mammary epithelial cell lines used included non-tumorigenic diploid MCF-10A, HMEC-hTERT and tumorigenic MDA-MB-468 (basal) and MCF-7 (luminal). […] Blood samples were obtained from normal donor participants. The participants provided written informed consent to IRB protocol #95–054 approved by the Institutional Review Board at MSKCC. The original signed consent is then sent to the research participant’s medical record and a copy of the consent is given to the participant. The EBV-transformed B-lymphocyte cell line (EBV-BL) was generated by transformation of peripheral blood mononuclear cells (PBMC) with the B95.8 strain of EBV, as previously described. Primary T cells were generated from PBMC from two normal donors by non-specific activation with phytohemagglutinin and cultured in RPMI1640 and human serum AB for 4–14 days before use. E14 mES cell line was provided by M. Hooper, Brca1^-/- 236.44 mES cell line was provided by B. H. Koller, Brca2^lex1/lex2 mES cell line was provided by P. Hasty and Lexicon Genetics. E14 wild-type, Brca1^-/- 236.44, and Brca2^lex1/lex2 mES cell lines were cultured in standard ES media. Brca1^-/- 236.44 cells express a BRCA1 peptide deleted for sequences encoded by exon 11 [52], while Brca2^lex1/lex2 cells express a BRCA2 peptide deleted for the terminal exon 27 [53]. […] Veliparib and BSI-201 were purchased from Chemie Tek. The compounds were dissolved in DMSO and PBS. For clonogenic survival assays, MCF-10A (1000 cells), HMEC-hTERT (1000 cells), MDA-MB-468 (1500 cells) and mouse ES cell (2000 cells) were seeded, vehicle control or inhibitors were added at the indicated concentration 24 hours after seeding and changed every three days for continuous treatment. At 7–14 days, colonies were fixed with methanol and stained with Giemsa. For EBV-BL (6 × 10^6) and primary T cells (3.6 × 10^6) were continuously exposed to the indicated concentration of drug for 10 days at 0.6 × 10^6 cells/ml. Viable cells were scored by trypan blue exclusion.

[2] = system: Brca1^-/- 236.44 mES cells; test: Clonogenic survival assay, mES cells; type: cell-based, mouse
Description: as §1

[3] = system: repair-proficient human cells; test: SCE assay, summary over the human cell types; type: cell-based; conditions: primary T cells; brief exposure
Description: (§2) Human mammary epithelial cell lines used included non-tumorigenic diploid MCF-10A, HMEC-hTERT and tumorigenic MDA-MB-468 (basal) and MCF-7 (luminal). […] Blood samples were obtained from normal donor participants. The participants provided written informed consent to IRB protocol #95–054 approved by the Institutional Review Board at MSKCC. The original signed consent is then sent to the research participant’s medical record and a copy of the consent is given to the participant. The EBV-transformed B-lymphocyte cell line (EBV-BL) was generated by transformation of peripheral blood mononuclear cells (PBMC) with the B95.8 strain of EBV, as previously described. Primary T cells were generated from PBMC from two normal donors by non-specific activation with phytohemagglutinin and cultured in RPMI1640 and human serum AB for 4–14 days before use. E14 mES cell line was provided by M. Hooper, Brca1^-/- 236.44 mES cell line was provided by B. H. Koller, Brca2^lex1/lex2 mES cell line was provided by P. Hasty and Lexicon Genetics. E14 wild-type, Brca1^-/- 236.44, and Brca2^lex1/lex2 mES cell lines were cultured in standard ES media. […] Viable cells were scored by trypan blue exclusion.
To prepare metaphase spreads, exponentially growing cells were treated with 0.1–0.3 μg/ml of colcemid for 1–6 hr. […] To visualize SCEs, the doubling time for each cell type was determined. […]

MCF-10A = test: Clonogenic survival assay; type: cell-based, human
Protocol: Clonogenic survival was assessed by colony counting at 9 days. […] Viable cells were scored and enumerated by trypan blue exclusion at 7 days. Means with SD are shown (MCF-10A: n = 3, primary T cell 1: n = 2). […] Fold increases of SCE per chromosome compared with no treatment or 0.5 μM cisplatin are shown for each cell type. Approximately 50 metaphases were counted for each cell. Error bars depict the mean with SD. Asterisks designate statistical significance for unpaired t-test at P < 0.0001. C. […] One hundred metaphases were counted for each exposure. Fold increases of chromatid-type aberrations per chromosome compared with no treatment or 0.5 μM cisplatin are shown for each cell type. The y-axis is the number of total chromatid-type aberrations per chromosome for each metaphase counted. Error bars indicate mean with SEM. The P-values were calculated using unpaired t-test.
Human mammary epithelial cell lines used included non-tumorigenic diploid MCF-10A, HMEC-hTERT and tumorigenic MDA-MB-468 (basal) and MCF-7 (luminal). […] Blood samples were obtained from normal donor participants. The participants provided written informed consent to IRB protocol #95–054 approved by the Institutional Review Board at MSKCC. The original signed consent is then sent to the research participant’s medical record and a copy of the consent is given to the participant. The EBV-transformed B-lymphocyte cell line (EBV-BL) was generated by transformation of peripheral blood mononuclear cells (PBMC) with the B95.8 strain of EBV, as previously described. Primary T cells were generated from PBMC from two normal donors by non-specific activation with phytohemagglutinin and cultured in RPMI1640 and human serum AB for 4–14 days before use. E14 mES cell line was provided by M. Hooper, Brca1^-/- 236.44 mES cell line was provided by B. H. Koller, Brca2^lex1/lex2 mES cell line was provided by P. Hasty and Lexicon Genetics. E14 wild-type, Brca1^-/- 236.44, and Brca2^lex1/lex2 mES cell lines were cultured in standard ES media. Brca1^-/- 236.44 cells express a BRCA1 peptide deleted for sequences encoded by exon 11 [52], while Brca2^lex1/lex2 cells express a BRCA2 peptide deleted for the terminal exon 27 [53]. Olaparib was synthesized in the MSKCC Organic chemistry core facility. Veliparib and BSI-201 were purchased from Chemie Tek. The compounds were dissolved in DMSO and PBS. For clonogenic survival assays, MCF-10A (1000 cells), HMEC-hTERT (1000 cells), MDA-MB-468 (1500 cells) and mouse ES cell (2000 cells) were seeded, vehicle control or inhibitors were added at the indicated concentration 24 hours after seeding and changed every three days for continuous treatment. At 7–14 days, colonies were fixed with methanol and stained with Giemsa. For EBV-BL (6 × 10^6) and primary T cells (3.6 × 10^6) were continuously exposed to the indicated concentration of drug for 10 days at 0.6 × 10^6 cells/ml. Viable cells were scored by trypan blue exclusion.

EBV-BL = test: Survival, trypan blue exclusion test of cell viability; type: cell-based, human
Description: as §1

human cells = test: Olaparib cytotoxicity on continuous exposure, summary over cell types; type: cell-based; conditions: typical value over cell types
Description: as §2, with “media. Brca1^-/- 236.44 cells express a BRCA1 peptide deleted for sequences encoded by exon 11 [52], while Brca2^lex1/lex2 cells express a BRCA2 peptide deleted for the terminal exon 27 [53].” for “media.”

primary T cell 2 = test: Survival, trypan blue exclusion test of cell viability; type: cell-based; conditions: Homo sapiens, read-out: IC50 of olaparib, continuous exposure
Description: as §2, with “media. Brca1^-/- 236.44 cells express a BRCA1 peptide deleted for sequences encoded by exon 11 [52], while Brca2^lex1/lex2 cells express a BRCA2 peptide deleted for the terminal exon 27 [53].” for “media.”

HMEC-hTERT = test: Clonogenic survival assay; type: cell-based; conditions: Homo sapiens, read-out: IC50 of olaparib, continuous exposure
Description: as §2, with “media. Brca1^-/- 236.44 cells express a BRCA1 peptide deleted for sequences encoded by exon 11 [52], while Brca2^lex1/lex2 cells express a BRCA2 peptide deleted for the terminal exon 27 [53].” for “media.”

MDA-MB-468 = test: Clonogenic survival assay; type: cell-based; conditions: Homo sapiens, read-out: IC50 of olaparib, continuous exposure
Description: as §2, with “media. Brca1^-/- 236.44 cells express a BRCA1 peptide deleted for sequences encoded by exon 11 [52], while Brca2^lex1/lex2 cells express a BRCA2 peptide deleted for the terminal exon 27 [53].” for “media.”

[4] = patients on the olaparib-treated arm, prior cytotoxic chemotherapy; cited from earlier work
[5] = system: repair-proficient human cells; test: Chromatid-type aberrations, summary over the human cell types; type: cell-based
Protocol: To prepare metaphase spreads, exponentially growing cells were treated with 0.1–0.3 μg/ml of colcemid for 1–6 hr. Cells were collected and incubated in hypotonic solution (0.56% KCl), fixed in methanol: acetic acid (3:1), spotted to slides and air-dried. To measure chromosomal aberrations, the slides were stained with 2% Giemsa/Sorensen’s buffer. To visualize SCEs, the doubling time for each cell type was determined. Cells were incubated with 10 μM BrdU for two cell cycles. After metaphase spreads were prepared, the slides were treated with 0.5 μg/ml Hoechst 33258. The slides were exposed to black light for 20–60 min, incubated at 60°C for 2 hr, and stained in 4–10% Giemsa/Sorensen’s buffer.

[6] = Mus musculus, read-out: IC50 (clonogenic survival)

For `O=C(c1cc(Cc2n[nH]c(=O)c3ccccc23)ccc1F)N1CCN(C(=O)C2CC2)CC1` [olaparib], the IC50 [1, 6] was 13 nM, the “enhanced sensitivity of cells lacking wild-type BRCA2 vs wild-type cells” value ([1]; ratio of IC50, wild-type / Brca2^lex1/lex2) was 46 fold and the IC50 [2, 6] was 2.5 nM. The “enhanced sensitivity of cells lacking wild-type BRCA1 vs wild-type cells” value ([2]; ratio of IC50, wild-type / Brca1^-/- 236.44) was 240 fold, the “average SCEs per metaphase” value [3] was ~ 40 and the “survival (mean ± SD)” value (MCF-10A; 1 μM) was 95.7 ± 1.9%. For the same molecule, the IC50 (MCF-10A; Homo sapiens, continuous exposure, clonogenic survival assay, read-out: IC50 (cell survival)) was 4700 nM, the “survival (mean ± SD)” value (EBV-BL; EBV-BL, 1 μM) was 92.6 ± 7.4% and the IC50 (EBV-BL; Homo sapiens, 240 h, read-out: IC50 (cell survival), EBV-BL, continuous exposure 10 days, trypan blue exclusion) was 3600 nM. For the same molecule, the IC50 (human cells) was over 2000 nM, the IC50 (primary T cell 2) was 2700 nM and the IC50 (HMEC-hTERT) was 5500 nM. For the same molecule, the IC50 (MDA-MB-468) was 600 nM, the “incidence of myelodysplastic syndrome and acute myelogenous leukemia” value [4] was 2.2% and the “increase of chromatid aberrations” value ([5]; clinically relevant doses (abstract)) was 2-6 fold. The radial chromosomes identified ([5]; olaparib-treated cells, all cell types (1 in untreated)) was 12.
